Experimental data reported in paper PMC5959751 (Biochemical pharmacology, 2018).
“And” between values parts separate entries of the source, which are not always exact repeats. Equal entries are not always repeated. Where two headings read alike, the source gives them in different places.

What was measured:
[1] = target: T1, hA3 receptor (Homo sapiens, UniProt P0DMS8); experiment: Radioligand equilibrium displacement assay with [3H]PSB-11 on CHOhA3 membranes; assay type: binding; conditions: no GTP; for pKi / Ki: 10 °C, 240 min, [3H]PSB-11, CHO cell membranes; for pKi: ± SEM
T1 sequence (P0DMS8 1-318): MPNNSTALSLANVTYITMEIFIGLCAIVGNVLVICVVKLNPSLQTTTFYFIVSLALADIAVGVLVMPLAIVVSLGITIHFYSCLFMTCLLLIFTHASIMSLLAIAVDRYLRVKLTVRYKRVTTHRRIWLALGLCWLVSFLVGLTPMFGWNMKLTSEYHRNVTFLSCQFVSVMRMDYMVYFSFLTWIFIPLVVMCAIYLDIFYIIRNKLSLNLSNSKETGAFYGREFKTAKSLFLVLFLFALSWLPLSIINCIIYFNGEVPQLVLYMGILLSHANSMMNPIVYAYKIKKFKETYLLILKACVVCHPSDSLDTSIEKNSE

[2] = target: T1, hA3 receptor; experiment: Competition association assay with [3H]PSB-11; assay type: binding; conditions: no GTP; for koff / kon: 10 °C, ± SEM; for RT (residence time): RT = 1/(60*koff); for mean pKD (kinetic): from KD = koff/kon; for Kd: read-out: Kinetic KD, KD = koff/kon
[3] = target: T1, hA3 receptor; experiment: Dual-point competition association assay with [3H]PSB-11; assay type: binding; conditions: no GTP; t1 20 min, t2 240 min; agonist at IC50; 10 °C
[4] = tested on: pain models; conditions: five-day period; daily injection or implanted mini-pump; rat; cited from earlier work

CNC(=O)C12CC1C(n1cnc3c(NCc4cccc(Cl)c4)nc(C#Cc4ccccc4)nc31)C(O)C2O (stereo not shown) [MRS5655]
pKi [1]: 8.5 ± 0.09
Ki ([1]; read-out: mean Ki): 3.6 nM
koff [2]: (1.8 ± 0.3) × 10^-5 s^-1
kon [2]: (4.0 ± 0.8) × 10^5 M^-1 s^-1
RT (residence time) [2]: 909 ± 165 min
mean pKD (kinetic) [2]: 10.3
Kd [2]: 0.046 ± 0.013 nM

OC[C@H]1O[C@@H](n2cnc3c(Nc4ccc(I)cc4)ncnc32)[C@H](O)[C@@H]1O [LUF5506]
pKi [1]: 7.6 ± 0.08
Ki ([1]; read-out: mean Ki): 29 nM

CNC(=O)C12CC1C(n1cnc3c(NC)nc(C#Cc4ccc(-c5ccccc5)cc4)nc31)C(O)C2O (stereo not shown) [MRS5667]
pKi [1]: 8.3 ± 0.05
Ki ([1]; read-out: mean Ki): 4.6 nM
koff [2]: (1.1 ± 0.3) × 10^-5 s^-1
kon [2]: (1.8 ± 0.3) × 10^5 M^-1 s^-1
RT (residence time) [2]: 1563 ± 464 min
mean pKD (kinetic) [2]: 10.2
Kd [2]: 0.058 ± 0.02 nM

CNC(=O)C12CC1C(n1cnc3c(N(C)C)nc(C#Cc4ccc(Cl)s4)nc31)C(O)C2O (stereo not shown) [MRS7158]
Ki ([1]; read-out: mean Ki): 618 nM

CNC(=O)[C@H]1O[C@@H](n2cnc3c(N)ncnc32)[C@H](O)[C@@H]1O [MECA, 5′-N-methylcarboxamidoadenosine, reference compound]
pKi [1]: 7.4 ± 0.04
Ki ([1]; read-out: mean Ki): 42 nM
KRI (Kinetic Rate Index) [3]: 1.24 and 1.24 ± 0.09

CNC(=O)[C@H]1O[C@@H](n2cnc3c(NCc4cccc(I)c4)ncnc32)[C@H](O)[C@@H]1O [IB-MECA, 1-deoxy-1-[6-[((3-Iodophenyl)methyl)amino]-9H-purin-9-yl]-N-methyl-β-D-ribofuranuronamide, reference compound]
Hill Slope ([1]; displacement curves): -0.94 ± 0.05 ^ns

CNC(=O)[C@@]12C[C@@H]1[C@@H](n1cnc3c(NC)cc(C#Cc4ccc(Cl)s4)nc31)[C@H](O)[C@@H]2O [MRS7140]
pKi [1]: 8.3 ± 0.08
Ki ([1]; read-out: mean Ki): 5.2 nM
koff [2]: (8.5 ± 0.3) × 10^-5 s^-1
kon [2]: (3.2 ± 1.2) × 10^5 M^-1 s^-1
RT (residence time) [2]: 196 ± 8 min
mean pKD (kinetic) [2]: 9.6
Kd [2]: 0.27 ± 0.1 nM

OC[C@H]1O[C@@H](n2cnc3c(Nc4ccc(Cl)cc4)ncnc32)[C@H](O)[C@@H]1O [LUF5500]
pKi [1]: 7.3 ± 0.03
Ki ([1]; read-out: mean Ki): 51 nM
KRI (Kinetic Rate Index) [3]: 0.98 (0.95; 1.01)

CNC(=O)[C@@]12C[C@@H]1[C@@H](n1cnc3c(NCc4cccc(Cl)c4)nc(C#Cc4ccc(-c5ccccc5)cc4)nc31)[C@H](O)[C@@H]2O [MRS5679]
Ki ([1]; mean Ki): 82 nM
koff [2]: very slow

OC[C@H]1O[C@@H](n2cnc3c(Nc4cccc(Cl)c4)ncnc32)[C@H](O)[C@@H]1O [LUF5501]
pKi [1]: 7.5 ± 0.02
Ki ([1]; read-out: mean Ki): 31 nM
koff [2]: (1.6 ± 0.2) × 10^-3 s^-1
kon [2]: (1.7 ± 0.2) × 10^5 M^-1 s^-1
RT (residence time) [2]: 10 ± 1.3 min
mean pKD (kinetic) [2]: 8.0
difference between kinetic pKD and pKi ([2]; pKD higher than pKi): 0.5 log-unit
Kd [2]: 9.2 ± 1.4 nM

CNC(=O)[C@@]12C[C@@H]1[C@@H](n1cnc3c(NCc4cccc(Cl)c4)nc(C#Cc4ccc(F)c(F)c4)nc31)[C@H](O)[C@@H]2O [MRS5698]
efficacy on prolonged exposure in in vivo pain models [4]: maintained full efficacy

CCCNc1nc(C#Cc2ccc(Cl)s2)nc2c1ncn2[C@H]1[C@H](O)[C@H](O)[C@]2(C(=O)NC)C[C@H]12 [MRS7154]
pKi [1]: 8.7 ± 0.06
Ki ([1]; read-out: mean Ki): 2.2 nM
koff [2]: (6.2 ± 1.2) × 10^-5 s^-1
kon [2]: (4.0 ± 0.7) × 10^5 M^-1 s^-1
RT (residence time) [2]: 270 ± 51 min
mean pKD (kinetic) [2]: 9.8
Kd [2]: 0.15 ± 0.04 nM
